Patent US6489302B1, “Saccharide conjugates” (Deutches Krebsforschungszentrum Stiftung Des Offentlichen …, priority 1995, dated 2002)

Legend:
[1] = Whole-body autoradiography of the 14C-labeled conjugate in rats after i.v. injection (organ distribution); format: in vivo, rat
Protocol: (§1) This conjugate was labeled with ^14C according to common methods and used for the following treatment of rats.
(§2) The rats used were female Sprague-Dawley rats (SD rats; obtainable from Charles River Wiga, Sulzfeld, Germany) and male Copenhagen rats (obtainable from Harlan Sprague Dawley, Ind., U.S.A.).
(§3) Groups of 5 healthy SD rats were given i.v. injections of 315 mg/kg β-D-Glc-IMP and 56.2 mg/kg of β-D-Glc-IMP, respectively. 5 of the tumor-bearing Copenhagen rats were given 315 mg/kg of β-D-Glc-IMP. The radioactive dose per injection was about 20 μCi. One animal of every group was killed with CO2 10 minutes, 1 hours, 2 hours, 8 hours and 24 hours, respectively, after the administration of the injection. The tissues of the rats were prepared for a common microtome preparation and the sections were subjected to autoradiography as described by Ullberg, S., (1977), in: Alvefeldt, O. (ed.) Special issue on whole-body autoradiography. Science Tools, Bromma, Sweden, p. 2).

[2] = tested on: Dunning prostate tumor tissue; test: Whole-body autoradiography of the 14C-labeled conjugate in tumor-bearing Copenhagen rats; format: in vivo, rat; conditions: Copenhagen rats with transplanted Dunning prostate tumor, 315 mg/kg i.v.
Text: as §1, §2
Fresh pieces (2×2 mm) of Dunning prostate tumor tissue were transplanted into the Copenhagen rats. The tumors were allowed to grow for about one week until they were well palpable but not yet necrotic.
as §3

tumor = test: Applicant's finding: anti-tumor properties
[3] = Applicant's finding: side-effects; conditions: as compared to cyclophosphoramide and isophosphoramide

SMILES: O=P(NCCCl)(NCCCl)OC1OC(CO)C(O)C(O)C1O [β-D-Glc-IMP, β-D-Glucosylisophosphoramide]
- accumulation in organs, particularly the liver, kidneys, thymus and thyroid gland ([1]; 10 minutes after i.v. injection, 315 mg/kg or 56.2 mg/kg): accumulated in organs
- presence in central nervous system, including the brain ([1]; 8 hours after i.v. injection): contained the conjugate
- accumulation in tumor tissue [2]: strong accumulation
- anti-tumor properties (tumor): good anti-tumor properties
- side-effects [3]: extremely low side-effects
